Measured values as given in patent US8916557B2, “Substituted 4-Aryl-N-phenyl-1,3,5-triazin-2-amines” (Bayer Intellectual Property GmbH, priority 2011, dated 2014).

How the values were obtained:
[1] = system: DU 145, hormone-independent human prostate carcinoma cells; test: Proliferation assay (crystal violet), DU 145; assay type: cell-based; conditions: DU145 cells, read-out: Inhibition of DU145 cell proliferation
[2] = system: HeLa human cervical tumour cells; test: Proliferation assay (crystal violet), HeLa; assay type: cell-based; conditions: read-out: Inhibition of HeLa cell proliferation
[3] = system: NCI-H460, human non-small cell lung carcinoma cells; test: Proliferation assay (crystal violet), NCI-H460; assay type: cell-based; conditions: read-out: Inhibition of H460 cell proliferation (activity range)
Procedure: (§1) Cultivated tumour cells (NCI-H460, human non-small cell lung carcinoma cells, ATCC HTB-177; DU 145, hormone-independent human prostate carcinoma cells, ATCC HTB-81; HeLa-MaTu, human cervical carcinoma cells, EPO-GmbH, Berlin; HeLa-MaTu-ADR, multidrug-resistant human cervical carcinoma cells, EPO-GmbH, Berlin; HeLa human cervical tumour cells, ATCC CCL-2; Caco-2 human colorectal carcinoma, ATCC HTB-37; B16F10 mouse melanoma cells, ATCC CRL-6475) were plated at a density of 5000 cells/well (DU145, HeLa-MaTu-ADR), 3000 cells/well (NCI-H460, HeLa-MaTu, HeLa), 1500 cells/well (Caco-2), or 1000 cells/well (B16F10) in a 96-well multititer plate in 200 μL of their respective growth medium supplemented 10% fetal calf serum. After 24 hours, the cells of one plate (zero-point plate) were stained with crystal violet (see below), while the medium of the other plates was replaced by fresh culture medium (200 μl), to which the test substances were added in various concentrations (0 μM, as well as in the range of 0.001-10 μM; the final concentration of the solvent dimethyl sulfoxide was 0.5%). The cells were incubated for 4 days in the presence of test substances. Cell proliferation was determined by staining the cells with crystal violet: the cells were fixed by adding 20 μl/measuring point of an 11% glutaric aldehyde solution for 15 minutes at room temperature. After three washing cycles of the fixed cells with water, the plates were dried at room temperature. The cells were stained by adding 100 μl/measuring point of a 0.1% crystal violet solution (pH 3.0). After three washing cycles of the stained cells with water, the plates were dried at room temperature. The dye was dissolved by adding 100 μl/measuring point of a 10% acetic acid solution. The extinction was determined by photometry at a wavelength of 595 nm. The change of cell number, in percent, was calculated by normalization of the measured values to the extinction values of the zero-point plate (=0%) and the extinction of the untreated (0 μm) cells (=100%). The IC50 values were determined by means of a 4 parameter fit.

[4] = system: HeLa-MaTu-ADR, multidrug-resistant human cervical carcinoma cells; test: Proliferation assay (crystal violet), HeLa-MaTu-ADR; assay type: cell-based; conditions: read-out: Inhibition of HeLa/MaTu/ADR cell proliferation
Procedure: as §1

[5] = system: B16F10 mouse melanoma cells; test: Proliferation assay (crystal violet), B16F10; assay type: cell-based; conditions: B16-F10, read-out: Inhibition of B16F10 cell proliferation
Procedure: as §1

[6] = target: T1, CDK2/CycE (Homo sapiens, UniProt P24941); test: CDK2/CycE kinase assay (TR-FRET); assay type: biochemical; conditions: Method 2, 10 μM ATP
T1 construct: GST; purchased ProQinase GmbH (Freiburg, Germany); host or cells: insect cells (Sf9)
Summary of the method: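 GST-CDK2/GST-CycE (Sf9-expressed, ~130 ng/ml) pre-incubated with compound 15 min, then reacted 25 min at 22 °C with 10 μM ATP and 0.75 μM biotinylated peptide in Tris pH 8.0. Phospho-substrate detected by TR-FRET (anti-pRb pSer807/811, Eu/XL665), 665/620 nm ratio.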

| SMILES | IC50 [1] | IC50 [2] | IC50 [3] | IC50 [4] | IC50 [5] | IC50 [6] |
| --- | --- | --- | --- | --- | --- | --- |
| COc1cc(F)c(F)cc1-c1ncnc(Nc2cccc(CS(C)(=O)=O)c2)n1 [Example 1, 4-(4,5-Difluoro-2-methoxyphenyl)-N-{3-[(methylsulfonyl)methyl]phenyl}-1,3,5-triazin-2-amine] | 830 nM | 680 nM | 910 nM | 400 nM | 1000 nM | 640 nM |
| COc1cc(F)ccc1-c1ncnc(Nc2cccc(CS(C)(=O)=O)c2)n1 [Example 3, 4-(4-Fluoro-2-methoxyphenyl)-N-{3-[(methylsulfonyl)methyl]phenyl}-1,3,5-triazin-2-amine] | 1200 nM |  | 1200 nM | 920 nM | 1700 nM | 1600 nM |
| COc1cc(F)ccc1-c1ncnc(Nc2cccc(CS(=O)(=O)C3CCCCC3)c2)n1 [Example 9, N-{3-[(Cyclohexylsulfonyl)methyl]phenyl}-4-(4-fluoro-2-methoxyphenyl)-1,3,5-triazin-2-amine] | 840 nM | 1000 nM | 690 nM | 420 nM | 1300 nM | 560 nM |
| COc1cc(F)ccc1-c1ncnc(Nc2cc(F)cc(CS(C)(=O)=O)c2)n1 [Example 10, 4-(4-Fluoro-2-methoxyphenyl)-N-{3-fluoro-5-[(methylsulfonyl)methyl]phenyl}-1,3,5-triazin-2-amine] | 220 nM | 110 nM | 220 nM | 80 nM | 270 nM | 320 nM |
| CS(=O)(=O)Cc1cccc(Nc2ncnc(-c3cccc4c3OCCC4)n2)c1 [Example 12, 4-(3,4-Dihydro-2H-chromen-8-yl)-N-{3-[(methylsulfonyl)methyl]phenyl}-1,3,5-triazin-2-amine] | 320 nM | 340 nM | 410 nM | 230 nM | 510 nM | 510 nM |
| CS(=O)(=O)Cc1cccc(Nc2ncnc(-c3cccc4c3OCCO4)n2)c1 [Example 18, 4-(2,3-Dihydro-1,4-benzodioxin-5-yl)-N-{3-[(methylsulfonyl)methyl]phenyl}-1,3,5-triazin-2-amine] | 530 nM | 530 nM | 730 nM | 400 nM | 640 nM | 840 nM |
| CS(=O)(=O)Cc1cccc(Nc2ncnc(-c3ccc(Cl)cc3OC3CCCC3)n2)c1 [Example 29, 4-[4-Chloro-2-(cyclopentyloxy)phenyl]-N-{3-[(methylsulfonyl)methyl]phenyl}-1,3,5-triazin-2-amine] | 530 nM | 530 nM | 730 nM | 400 nM | 640 nM | 12000 nM |
| COc1cc(F)ccc1-c1ncnc(Nc2ccc(F)c(CS(C)(=O)=O)c2)n1 [Example 33, 4-(4-Fluoro-2-methoxyphenyl)-N-{4-fluoro-3-[(methylsulfonyl)methyl]phenyl}-1,3,5-triazin-2-amine] | 330 nM | 340 nM | 340 nM | 180 nM | 460 nM | 360 nM |
| COc1cc(F)ccc1-c1ncnc(Nc2cccc(CS(=O)(=O)C3CC3)c2)n1 [Example 40, N-{3-[(Cyclopropylsulfonyl)methyl]phenyl}-4-(4-fluoro-2-methoxyphenyl)-1,3,5-triazin-2-amine] | 600 nM | 640 nM | 600 nM | 510 nM | 820 nM | 1300 nM |
| CCCCOc1cc(F)ccc1-c1ncnc(Nc2cccc(CS(C)(=O)=O)c2)n1 [Example 44, 4-(2-Butoxy-4-fluorophenyl)-N-{3-[(methylsulfonyl)-methyl]phenyl}-1,3,5-triazin-2-amine] | 520 nM | 340 nM | 440 nM | 320 nM | 570 nM | 910 nM |
| CS(=O)(=O)Cc1cccc(Nc2ncnc(-c3ccc(F)cc3OCC3CC3)n2)c1 [Example 55, 4-[2-(Cyclopropylmethoxy)-4-fluorophenyl]-N-{3-[(methylsulfonyl)methyl]phenyl}-1,3,5-triazin-2-amine] | 570 nM | 840 nM | 490 nM | 320 nM | 960 nM | 1400 nM |
| CS(=O)(=O)Cc1cccc(Nc2ncnc(-c3ccc(F)cc3OCCCC(F)(F)F)n2)c1 [Example 59, 4-[4-Fluoro-2-(4,4,4-trifluorobutoxy)phenyl]-N-{3-[(methylsulfonyl)methyl]phenyl}-1,3,5-triazin-2-amine] | 220 nM | 470 nM | 350 nM | 220 nM | 330 nM | 710 nM |
| CC#CCOc1cc(F)ccc1-c1ncnc(Nc2cccc(CS(C)(=O)=O)c2)n1 [Example 62, 4-[2-(But-2-yn-1-yloxy)-4-fluorophenyl]-N-{3-[(methylsulfonyl)methyl]phenyl}-1,3,5-triazin-2-amine] | 170 nM | 110 nM | 160 nM | 180 nM | 240 nM | 540 nM |

The remaining lines, values ahead:

| IC50 [1] | IC50 [2] | IC50 [3] | IC50 [4] | IC50 [5] | IC50 [6] | SMILES |
| --- | --- | --- | --- | --- | --- | --- |
|  | 100 nM | 150 nM | 100 nM | 130 nM | 89 nM | CS(=O)(=O)Cc1cccc(Nc2ncnc(-c3ccc(F)cc3OCc3ccccc3)n2)c1 [Example 4, 4-[2-(Benzyloxy)-4-fluorophenyl]-N-{3-[(methylsulfonyl)methyl]phenyl}-1,3,5-triazin-2-amine] |
| 420 nM | 360 nM | 370 nM | 350 nM | 390 nM | 500 nM | CS(=O)(=O)Cc1cccc(Nc2ncnc(-c3ccccc3OCc3cccc(Cl)c3)n2)c1 [Example 28, 4-{2-[(3-Chlorobenzyl)oxy]phenyl}-N-{3-[(methylsulfonyl)methyl]phenyl}-1,3,5-triazin-2-amine] |
| 280 nM | 290 nM | 200 nM | 160 nM | 280 nM | 330 nM | CS(=O)(=O)Cc1cccc(Nc2ncnc(-c3cc(F)ccc3OCc3cccc(F)c3)n2)c1 [Example 31, 4-{5-Fluoro-2-[(3-fluorobenzyl)oxy]phenyl}-N-{3-[(methylsulfonyl)methyl]phenyl}-1,3,5-triazin-2-amine] |
| 260 nM | 330 nM | 290 nM | 220 nM | 370 nM | 590 nM | CCOc1cc(F)ccc1-c1ncnc(Nc2cccc(CS(C)(=O)=O)c2)n1 [Example 42, 4-(2-Ethoxy-4-fluorophenyl)-N-{3-[(methylsulfonyl)-methyl]phenyl}-1,3,5-triazin-2-amine] |
| 480 nM | 590 nM | 610 nM | 380 nM | 740 nM | 640 nM | CS(=O)(=O)Cc1cccc(Nc2ncnc(-c3ccc(F)cc3OCCF)n2)c1 [Example 61, 4-[4-Fluoro-2-(2-fluoroethoxy)phenyl]-N-{3-[(methylsulfonyl)methyl]phenyl}-1,3,5-triazin-2-amine] |
| 380 nM | 510 nM | 380 nM | 350 nM | 440 nM | 400 nM | Cc1cccc(COc2cc(F)ccc2-c2ncnc(Nc3cccc(CS(C)(=O)=O)c3)n2)c1 [Example 83, 4-{4-Fluoro-2-[(3-methylbenzyl)oxy]phenyl}-N-{3-[(methylsulfonyl)-methyl]phenyl}-1,3,5-triazin-2-amine] |
| 410 nM | 320 nM | 360 nM | 350 nM | 450 nM | 260 nM | CS(=O)(=O)Cc1cccc(Nc2ncnc(-c3ccc(F)cc3OCc3cccc(Cl)c3)n2)c1 [Example 85, 4-{2-[(3-Chlorobenzyl)oxy]-4-fluorophenyl}-N-{3-[(methylsulfonyl)methyl]phenyl}-1,3,5-triazin-2-amine] |
